Assay results taken from US10647675B2 (priority 2015, dated 2020).
Values after ≈ are worked out from the molar mass of the structure shown.

Assays:
[1] = system: Trichophyton rubrum KD-1130; assay: Antifungal activity evaluation test: minimum inhibitory concentration (MIC), broth dilution by reference to CLSI M38-A2; format: cell-based; conditions: KD1130, read-out: MIC (T. rubrum)
Summary of the method: (§1)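 Broth microdilution after CLSI M38-A2: 2-fold DMSO dilution series in MOPS-buffered RPMI 1640 pH 7.0, inoculum 2×10^3 cells/mL final. Incubated 35° C for 4 days; MIC (μg/mL) is lowest concentration giving visually ≥80% growth inhibition versus growth control.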

[2] = system: Trichophyton mentagrophytes SM-110; assay: as above; format: cell-based; conditions: SM110, read-out: MIC (T. menta.)
Summary of the method: as §1

| Structure (SMILES) | MIC [1] | MIC [2] |
| --- | --- | --- |
| CC(F)(F)c1ccc(Oc2ncccc2-c2ccnc3ccccc23)cn1 [I-108, 4-(2-{[6-(1,1-difluoroethyl)pyridin-3-yl]oxy}pyridin-3-yl)quinoline] | 0.2 to 0.78 µg/mL (≈ 0.55 to 2.15 µM) | ≤ 0.1 µg/mL |
| CCOC(=O)CCc1ncc(Oc2ncccc2-c2ccc(F)cc2OC)cn1 [I-195, ethyl 3-(5-{[3-(4-fluoro-2-methoxyphenyl)pyridin-2-yl]oxy}-pyrimidin-2-yl)propionate] | 0.2 to 0.78 µg/mL (≈ 0.503 to 1.96 µM) | 0.2 to 0.78 µg/mL (≈ 0.503 to 1.96 µM) |
| Fc1ccccc1-c1cccnc1Oc1ccc(C(F)(F)F)nc1 [I-3, 3-(2-fluorophenyl)-2-{[6-(trifluoromethyl)pyridin-3-yl]oxy}pyridine] | ≤ 0.1 µg/mL | ≤ 0.1 µg/mL |
| COc1ccncc1-c1cccnc1Oc1ccc(C)cc1 [I-252, 4′-methoxy-2-(p-tolyloxy)-3,3′-bipyridine] | 0.2 to 0.78 µg/mL (≈ 0.684 to 2.67 µM) | 0.2 to 0.78 µg/mL (≈ 0.684 to 2.67 µM) |
| COc1ccncc1-c1cccnc1Oc1ccc(C#C[Si](C)(C)C)cc1 [I-259, 4′-methoxy-2-{4-[(trimethylsilyl)ethynyl]phenoxy}-3,3′-bipyridine] | 0.2 to 0.78 µg/mL (≈ 0.534 to 2.08 µM) | 0.2 to 0.78 µg/mL (≈ 0.534 to 2.08 µM) |
| COc1cc(F)ccc1-c1cccnc1Oc1ccc(C(C)(F)F)nc1 [I-82] | ≤ 0.1 µg/mL | ≤ 0.1 µg/mL |
| COc1ccccc1-c1cccnc1Oc1ccc2c(c1)C(=O)CCC2 [I-273, 7-{[3-(2-methoxyphenyl)pyridin-2-yl]oxy}-3,4-dihydronaphthalen-1(2H)-one] | ≤ 0.1 µg/mL | ≤ 0.1 µg/mL |
| COc1ccncc1-c1cccnc1Oc1ccc(C#N)cc1 [I-243, 4-{[4′-methoxy-(3,3′-bipyridin)-2-yl]oxy}benzonitrile] | 0.2 to 0.78 µg/mL (≈ 0.659 to 2.57 µM) | 0.2 to 0.78 µg/mL (≈ 0.659 to 2.57 µM) |
| COC(=O)c1ccccc1-c1cccnc1Oc1ccc(C(F)(F)F)nc1 [I-20, methyl 2-(2-{[6-(trifluoromethyl)pyridin-3-yl]oxy}pyridin-3-yl)benzoate] | 0.2 to 0.78 µg/mL (≈ 0.534 to 2.08 µM) | 1.56 to 6.25 µg/mL (≈ 4.17 to 16.7 µM) |
| COc1ncccc1-c1cccnc1Oc1cnc(C2CC2)c(Cl)c1 [I-131, 2-[(5-chloro-6-cyclopropylpyridin-3-yl)oxy]-2′-methoxy-3,3′-bipyridine] | 0.2 to 0.78 µg/mL (≈ 0.565 to 2.2 µM) | 0.2 to 0.78 µg/mL (≈ 0.565 to 2.2 µM) |
| COc1ccccc1-c1cccnc1Oc1ccc(C(F)(F)Cn2cc(C)cn2)nc1 [I-153, 2-{(6-[1,1-difluoro-2-(4-methyl-1H-pyrazol-1-yl)ethyl]pyridin-3-yl}oxy)-3-(2-methoxyphenyl)pyridine] | ≤ 0.1 µg/mL | ≤ 0.1 µg/mL |
| FC(F)(F)c1ccc(Oc2ncccc2-c2cccc3ccnn23)cn1 [I-44, 7-(2-{[6-(trifluoromethyl)pyridin-3-yl]oxy}pyridin-3-yl)-pyrazolo[1,5-a]pryidine] | ≤ 0.1 µg/mL | ≤ 0.1 µg/mL |
| COc1ncccc1-c1cccnc1Oc1ccc(OCc2ccccc2)nc1 [I-176, 2-{[6-(benzyloxy)pyridin-3-yl]oxy}-2′-methoxy-3,3′-bipyridine] | ≤ 0.1 µg/mL | ≤ 0.1 µg/mL |
| CC(F)(F)c1ccc(Oc2ncccc2-c2cccc3ncoc23)cn1 [I-114, 7-(2-{[6-(1,1-difluoroethyl)pyridin-3-yl]oxy}pyridin-3-yl)benzo[d]oxazole] | 0.2 to 0.78 µg/mL (≈ 0.566 to 2.21 µM) | 0.2 to 0.78 µg/mL (≈ 0.566 to 2.21 µM) |
| COCCOCC(F)(F)c1ccc(Oc2ncccc2-c2ccc(F)cc2OC)cn1 [I-159, 2-({6-[1,1-difluoro-2-(2-methoxyethoxy)ethyl]pyridin-3-yl}oxy)-3-(4-fluoro-2-methoxyphenyl)pyridine] | 0.2 to 0.78 µg/mL (≈ 0.46 to 1.8 µM) | ≤ 0.1 µg/mL |
| COc1cccc(-c2cccnc2Oc2ccc(Cl)cc2)c1 [I-200, 2-(4-chlorophenoxy)-3-(3-methoxyphenyl)pyridine] | ≤ 0.1 µg/mL | ≤ 0.1 µg/mL |
| Cc1cncc(-c2cccnc2Oc2ccc(C(C)(F)F)nc2)c1 [I-93, 2-{[6-(1,1-difluoroethyl)pyridin-3-yl]oxy}-5′-methyl-3,3′-bipyridine] | 0.2 to 0.78 µg/mL (≈ 0.611 to 2.38 µM) | 0.2 to 0.78 µg/mL (≈ 0.611 to 2.38 µM) |
| FC(F)(F)c1ccc(Oc2ncccc2-c2ccccc2Cl)cn1 [I-4, 3-(2-chlorophenyl)-2-{[6-(trifluoromethyl)pyridin-3-yl]oxy}pyridine] | ≤ 0.1 µg/mL | ≤ 0.1 µg/mL |

Further lines, results first:

| MIC [1] | MIC [2] | Structure (SMILES) |
| --- | --- | --- |
| 0.2 to 0.78 µg/mL (≈ 0.492 to 1.92 µM) | 1.56 to 6.25 µg/mL (≈ 3.84 to 15.4 µM) | COc1ncccc1-c1cccnc1Oc1cnc(I)nc1 [I-353] |
| ≤ 0.1 µg/mL | ≤ 0.1 µg/mL | COc1ccncc1-c1cccnc1Oc1ccc(C(C)(F)F)cc1F [I-302] |
| ≤ 0.1 µg/mL | ≤ 0.1 µg/mL | COc1cc(F)ccc1-c1cccnc1Oc1cnc(Br)c(C)c1 [I-454] |
| ≤ 0.1 µg/mL | ≤ 0.1 µg/mL | COc1ccncc1-c1cccnc1Oc1ccc(C(C)(F)F)c(F)c1 [I-304] |
| ≤ 0.1 µg/mL | ≤ 0.1 µg/mL | COc1cc(F)ccc1-c1cccnc1Oc1cnc(C2(C)CC2)nc1 [I-379, 5-{[3-(4-fluoro-2-methoxyphenyl)pyridin-2-yl]oxy}-2-(1-methylcyclopropyl)pyrimidine] |
| ≤ 0.1 µg/mL | ≤ 0.1 µg/mL | COc1cc(F)ccc1-c1cccnc1Oc1cnc(N(C)C)c(C)c1 [I-369] |
| ≤ 0.1 µg/mL | ≤ 0.1 µg/mL | c1cc(-c2cncnc2Oc2ccc3c(c2)CCC3)n2nccc2c1 [I-326, 7-{4-[(2,3-dihydro-1H-inden-5-yl)oxy]pyrimidin-5-yl}pyrazolo[1,5-a]pyridine] |
| ≤ 0.1 µg/mL | ≤ 0.1 µg/mL | CC(F)(F)c1ccc(Oc2ncccc2-c2cccc3nccnc23)cc1 [I-308, 5-{2-[4-(1,1-difluoroethyl)-phenoxy]-3-yl}quinoxaline] |
| 0.2 to 0.78 µg/mL (≈ 0.576 to 2.25 µM) | 0.2 to 0.78 µg/mL (≈ 0.576 to 2.25 µM) | COc1ccccc1-c1ccnnc1Oc1ccc(C(F)(F)F)nc1 [I-311, 4-(2-methoxyphenyl)-3-{[6-(trifluoromethyl)pyridin-3-yl]oxy}pyridazine] |
| ≤ 0.1 µg/mL | ≤ 0.1 µg/mL | COCC(F)(F)c1ccc(Oc2ncccc2-c2cccc3ccnn23)cc1 [I-413, 7-{2-[4-(1,1-difluoro-2-methoxyethyl)phenoxy]pyridin-3-yl}pyrazolo[1,5-a]pyridine] |
| ≤ 0.1 µg/mL | ≤ 0.1 µg/mL | Cc1ccncc1-c1cccnc1Oc1ccc(C(C)(F)F)cc1 [I-299, 2-[4-(1,1-difluoroethyl)-phenoxy]-4′-methyl-3,3′-bipyridine] |
| ≤ 0.1 µg/mL | ≤ 0.1 µg/mL | Cc1cc(Oc2ncccc2-c2cccc3c2OCC3)cnc1C(F)(F)F [I-448] |
| ≤ 0.1 µg/mL | 0.2 to 0.78 µg/mL (≈ 0.576 to 2.25 µM) | COc1ccccc1-c1nccnc1Oc1ccc(C(F)(F)F)nc1 [I-309, 2-(2-methoxyphenyl)-3-{[6-(trifluoromethyl)pyridin-3-yl]oxy}pyrazine] |
| ≤ 0.1 µg/mL | ≤ 0.1 µg/mL | COc1ccccc1-c1cccnc1Oc1ccc(C(F)F)cc1 [I-444] |
| ≤ 0.1 µg/mL | ≤ 0.1 µg/mL | CCc1ccc(Oc2ncccc2-c2cncc(Br)c2OC)cc1 [I-285, 5′-bromo-2-(4-ethylphenoxy)-4′-methoxy-3,3′-bipyridine] |
| ≤ 0.1 µg/mL | ≤ 0.1 µg/mL | Cc1cc(Oc2ncccc2-c2cccc3ccnn23)ccc1C(F)F [I-462] |
| ≤ 0.1 µg/mL | ≤ 0.1 µg/mL | Cc1cnn(-c2ccc(Oc3ncccc3-c3cnccc3C)cc2)c1 [I-432] |
| 1.56 to 6.25 µg/mL (≈ 4.97 to 19.9 µM) | 0.2 to 0.78 µg/mL (≈ 0.637 to 2.49 µM) | COc1ccncc1-c1cncnc1Oc1ccc(Cl)cc1 [I-357, 4-(4-chlorophenoxy)-5-(4-methoxypyridin-3-yl)pyrimidine] |
| ≤ 0.1 µg/mL | ≤ 0.1 µg/mL | COc1ccccc1-c1cncnc1Oc1ccc(C(F)F)cc1 [I-322, 4-[4-(difluoromethyl)phenoxy]-5-(2-methoxyphenyl)pyrimidine] |
